Test results taken from patent publication US5786349A, “Method for treating chlamydia infectious diseases by rifamycin derivative” (Kaneka Corporation, priority 1995, dated 1998).
≈ marks a conversion by molar mass, not a printed value. Where “and” joins values, the source holds several entries; their conditions need not be identical. Identical values can stand only once.

Columns and labels:
[1] = tested on: Chlamydia pneumoniae AR-39; assay: In vitro test 3: inhibition of inclusion formation in HeLa 229 cells, about 5 times the inoculum of test 2, C. pneumoniae AR-39; conditions: AR39, 72 h, read-out: Minimum inhibitory concentration AR-39
[2] = tested on: Chlamydia pneumoniae TW-183; assay: In vitro test 3: inhibition of inclusion formation in HeLa 229 cells, about 5 times the inoculum of test 2, C. pneumoniae TW-183; conditions: TW183, 72 h, read-out: Minimum inhibitory concentration TW-183
[3] = tested on: Chlamydia pneumoniae AR-39; assay: Infection-therapy test: mouse pneumonia model; conditions: 1 mg/kg/day i.p. for 3 days
[4] = tested on: Chlamydia trachomatis D/UW-3/Cx; assay: In vitro test 1: inhibition of inclusion formation in HeLa 229 cells (Japan Society of Chemotherapy standard method), C. trachomatis D/UW-3/Cx; conditions: rifampicin vs compound 4
[5] = tested on: Chlamydia trachomatis F/UW-6/Cx; assay: In vitro test 1: inhibition of inclusion formation in HeLa 229 cells (Japan Society of Chemotherapy standard method), C. trachomatis F/UW-6/Cx; conditions: rifampicin vs compound 4

| Structure (SMILES) | MIC [1] | MIC [2] | also measured |
| --- | --- | --- | --- |
| CC[C@H]1OC(=O)[C@H](C)[C@@H](O[C@H]2C[C@@](C)(OC)[C@@H](O)[C@H](C)O2)[C@H](C)[C@@H](O[C@@H]2O[C@H](C)C[C@H](N(C)C)[C@H]2O)[C@](C)(O)C[C@@H](C)CN(C)[C@H](C)[C@@H](O)[C@]1(C)O [Azithromycin, reference compound] | 500 ng/mL (≈ 668 nM) | 250 ng/mL (≈ 334 nM) | – |
| COC1C=COC2(C)Oc3c(C)c(O)c4c(=O)c(c5oc6cc(N7CCN(CC(C)C)CC7)cc(O)c6nc-5c4c3C2=O)NC(=O)C(C)=CC=CC(C)C(O)C(C)C(O)C(C)C(OC(C)=O)C1C (centres unmarked) [Compound 4] | 1.25 ng/mL (≈ 1.33 nM) | 1.25 ng/mL (≈ 1.33 nM) | Mice from which Chlamydia was reisolated from the lung/tested mice ([3]; 2 days after infection): 3/3; Mice from which Chlamydia was reisolated from the lung/tested mice ([3]; 7 days after infection (3 days after completion of treatment), 1 mg/kg/day): only one mouse in a group of 5 mice and 1/5; Mice from which Chlamydia was reisolated from the lung/tested mice ([3]; 9 days after infection (5 days after completion of treatment)): 0/5; Mice from which Chlamydia was reisolated from the lung/tested mice ([3]; 14 days after infection (10 days after completion of treatment)): 0/5; Mice from which Chlamydia was reisolated from the lung/tested mice ([3]; 19 days after infection (15 days after completion of treatment)): 0/5; reisolation of organisms ([3]; after the 5th day from completion of treatment): no reisolation of organisms was observed; death of mice ([3]; treatment group): no death of the treatment group of mice was observed |
| COC1C=COC2(C)Oc3c(C)c(O)c4c(=O)c(c5oc6cc(N7CCN(CC(C)C)CC7)cc(O)c6nc-5c4c3C2=O)NC(=O)C(C)=CC=CC(C)C(O)C(C)C(O)C(C)C(O)C1C (centres unmarked) [Compound 5] | 2.5 ng/mL (≈ 2.78 nM) | 1.25 ng/mL (≈ 1.39 nM) | – |
| CO[C@H]1/C=C/O[C@@]2(C)Oc3c(C)c(O)c4c(O)c(c(/C=N/N5CCN(C)CC5)c(O)c4c3C2=O)NC(=O)/C(C)=C\C=C\[C@H](C)[C@H](O)[C@@H](C)[C@@H](O)[C@@H](C)[C@H](OC(C)=O)[C@@H]1C [rifampicin] | – | – | MIC as multiple of the concentration for the compound 4 [4]: about 30 times; MIC as multiple of the concentration for the compound 4 [5]: about 30 times |

Now from value to compound, other results behind:

| MIC [1] | MIC [2] | Structure (SMILES) | also measured |
| --- | --- | --- | --- |
| 0.63 ng/mL (≈ 0.649 nM) | 2.5 ng/mL (≈ 2.57 nM) | COC1C=COC2(C)Oc3c(C)c(O)c4c(=O)c(c5oc6cc(N7CCN(CC8OCCO8)CC7)cc(O)c6nc-5c4c3C2=O)NC(=O)C(C)=CC=CC(C)C(O)C(C)C(O)C(C)C(OC(C)=O)C1C (centres unmarked) | – |
| 1.25 ng/mL (≈ 1.41 nM) | 0.63 ng/mL (≈ 0.711 nM) | COC1C=COC2(C)Oc3c(C)c(O)c4c(=O)c(c5oc6cc(N7CCOCC7)cc(O)c6nc-5c4c3C2=O)NC(=O)C(C)=CC=CC(C)C(O)C(C)C(O)C(C)C(OC(C)=O)C1C (centres unmarked) [Compound 1] | – |
| 0.16 ng/mL (≈ 0.178 nM) | 0.63 ng/mL (≈ 0.701 nM) | COC1C=COC2(C)Oc3c(C)c(O)c4c(=O)c(c5oc6cc(N7CCN(C)CC7)cc(O)c6nc-5c4c3C2=O)NC(=O)C(C)=CC=CC(C)C(O)C(C)C(O)C(C)C(OC(C)=O)C1C (centres unmarked) [Compound 2] | – |
| 1.25 ng/mL (≈ 1.35 nM) | 5 ng/mL (≈ 5.39 nM) | CCCN1CCN(c2cc(O)c3nc4c5c6c7c(C)c(O)c5c(=O)c(c-4oc3c2)NC(=O)C(C)=CC=CC(C)C(O)C(C)C(O)C(C)C(OC(C)=O)C(C)C(OC)C=COC(C)(O7)C6=O)CC1 (centres unmarked) [Compound 3] | – |
